How the values were obtained:
[1] = system: PEO1 cells; test: Cell cycle progression, PEO1; assay type: cell-based, human; settings: FEN1i monotherapy
Procedure: (§1) with ice cold PBS and fixed in 70% ethanol for 1h at -20°C. After removal of the fixative solution by centrifugation, cells were stained with 2 µg/ml of phospho-Histone (γH2AX) Ser139 (16202A, Millipore, UK) to detect DSBs.
Cell cycle progression: Cells were treated with 20 µg/ml RNase A (12091021, Invitrogen) and then 10 µg/ml Propidium Iodide (P4170, Sigma Aldrich) was added to determine the cell cycle distribution. The samples were analysed on a Beckman-Coulter FC500 flow cytometer using a 488nm laser for excitation and emission data for PI collected using a 620nm bandpass filter (FL3) and a 525nm bandpass filter (FL1) for FITC-anti-phospho-Histone H2A.X. […]
Graphical representation and statistical analysis was performed in GraphPad Prism 7 (GraphPad, La Jolla, USA).
3D Spheroid assays: A2780_control and A2780 FEN1_ KO as well as A2780cis_control and A2780cis FEN1_ KO cells were seeded at 4500 cells/cm2 density in ultra-low attachment 6-well plates (174932, Thermo Fisher Scientific) and cultured in 3D Tumorsphere Medium (C28070, PromoCell, UK) at 37°C in a 5% CO2 atmosphere. Cells were keep in culture for 7-10 days, toping up with fresh medium every two days until spheroids structures were formed.

[2] = system: PEO1 spheroids; test: 3D spheroid assay, PEO1; assay type: cell-based, human; settings: PEO1 spheroids vs PEO4 spheroids
Procedure: as §1
Cell cycle progression: Cells were treated with 20 µg/ml RNase A (12091021, Invitrogen) and then 10 µg/ml Propidium Iodide (P4170, Sigma Aldrich) was added to determine the cell cycle distribution. The samples were analysed on a Beckman-Coulter FC500 flow cytometer using a 488nm laser for excitation and emission data for PI collected using a 620nm bandpass filter (FL3) and a 525nm bandpass filter (FL1) for FITC-anti-phospho-Histone H2A.X.
Apoptosis detection: Annexin V detection kit (556547, BD Biosciences) was used to quantify apoptotic cells. Briefly, cells were trypsinized, washed with PBS and the cellular pellet was re-suspended in Anexin Binding Buffer (1×). […] All the samples were analysed on a Beckman-Coulter FC500 flow cytometer. The percentage of apoptotic cells was determined (late apoptotic = FITC-Annexin V positive, PI positive early apoptotic = FITC-Annexin V positive, PI negative; live cells = FITC-Annexin V negative, PI negative) and compared for untreated and treated samples. […]
To quantify cell viability, LIVE/DEAD Viability/Cytotoxicity Kit (L3224, Thermo Fisher Scientific) was used. […] At least 10 spheroids were measured. […]

Cc1csc2c1c(=O)n(O)c(=O)n2-c1ccccc1 [PTPD, 3-hydroxy-5-methyl-1-phenylthieno [2,3 d]pyrimidine-2,4(1H,3H)-dione]
cell cycle effect [1]: S-phase and G2/M-phase cell cycle arrest | spheroid sensitivity to FEN1 inhibitor [2]: hypersensitive to FEN1 inhibition

Source: PMC8070745, “FEN1 Blockade for Platinum Chemo-Sensitization and Synthetic Lethality in Epithelial Ovarian Cancers” (Cancers, 2021)
